According to US20180200257A1, “METHODS FOR THE TREATMENT OF INFLAMMATORY DISORDERS” (Galapagos NV, priority 2015, published 2018):

Tested on: Subjects With Active Crohn's Disease With Evidence of Mucosal Ulceration
Assay: Study 3 - Crohn's Disease Activity Index (CDAI) scores
Format: in vivo, human
Source text: Double-Blind, Randomized, Placebo-Controlled, Multi-Centre Study to Investigate the Efficacy and Safety of Compound 1 in Subjects With Active Crohn's Disease With Evidence of Mucosal Ulceration. This is a double-blind, randomized, placebo-controlled, multi-centre Phase 2 study to investigate the efficacy and safety of Compound 1 administered once daily for the treatment of active CD with evidence of mucosal ulceration. The pharmacokinetics (including a PK substudy) and pharmacodynamics of Compound 1 and metabolite in CD will also be characterised. A total of 180 eligible subjects will be randomized to receive Compound 1 or placebo in addition to their stable background treatment (eg, corticosteroids, aminosalicylates, or CD-related antibiotics). The study will consist of 2 parts, with total treatment duration of 20 weeks. Randomization in Part 1 will be stratified according the subject's previous anti-TNF exposure/response, CRP level at Screening, and oral corticosteroid use at visit Day −1. After the first 10 weeks of treatment in Part 1, patients will be re-randomized for Part 2 as shown in the diagram below and will be stratified according to the subject's clinical response, previous anti-TNF exposure/response, and oral corticosteroid use at visit Day -1. [table] The Crohn's disease activity index (CDAI) is a numerical calculation derived from the sum of products from a list of 8 items (see Table CXXVI below), and multiplied by weighting factors for each item to define the severity of “disease activity” in patients with Crohn's disease (CD)[1]. Essentially, the CDAI represents a numerical estimation of a physician's interpretation of patient symptoms. Index values of 150 and below are associated with quiescent or non-active disease (i.e. “remission”). Values over 150 are indicative of active disease, and over 450, extremely severe disease.% In the present study, clinical remission is defined as a CDAI score of <150 points, and a clinical response is defined as a decrease in CDAI score of at least 100 points.

[1] = 200 mg, LOCF, baseline corticosteroid use: with steroids
[2] = 200 mg, LOCF, baseline corticosteroid use: without steroids
[3] = 200 mg, week 10, Anti-TNF Naïve
[4] = 200 mg, week 10, Anti-TNF experienced non-responders
[5] = 200 mg, week 10, LOCF, screening CRP ≤ 10 ml/L
[6] = 200 mg, week 10, LOCF, screening CRP ≥ 10 mg/L
[7] = initial 200 mg non-responders, continued 200 mg, week 10
[8] = initial 200 mg non-responders, continued 200 mg, week 20
[9] = initial 200 mg non-responders, to placebo, week 10
[10] = initial 200 mg non-responders, to placebo, week 20
[11] = initial 200 mg responders, continued 200 mg, week 10
[12] = initial 200 mg responders, continued 200 mg, week 20
[13] = initial 200 mg responders, to 100 mg, week 10
[14] = initial 200 mg responders, to 100 mg, week 20
[15] = initial 200 mg responders, to placebo, week 10
[16] = initial 200 mg responders, to placebo, week 20
[17] = initial placebo non-responders switching to 100 mg at week 10, week 20

`O=C(Nc1nc2cccc(-c3ccc(CN4CCS(=O)(=O)CC4)cc3)n2n1)C1CC1` [Compound 1, cyclopropanecarboxylic acid {5-[4-(1,1-dioxo-thiomorpholin-4-ylmethyl)-phenyl]-[1,2,4]triazolo[1,5-a]pyridin-2-yl}-amide] was tested, and the “70 point clinical response (CDAI improvement ≥ 70 points)” value (“70 point clinical response” for short) [1] was 70%, the “100 point clinical response (CDAI improvement ≥ 100 points)” value [1] was 60% and the “Clinical Remission (CDAI < 150)” value [1] was 52%. The “70 point clinical response” value [2] was 72%, the “100 point clinical response (CDAI improvement ≥ 100 points)” value [2] was 71% and the “Clinical Remission (CDAI < 150)” value [2] was 48%. For the same compound, the “70 point clinical response” value [3] was 81%, the “100 point clinical response (CDAI improvement ≥ 100 points), LOCF” value (“100 point clinical response … LOCF” for short) [3] was 74% and the “Clinical Remission (CDAI < 150), LOCF” value [3] was 65%. For the same compound, the “70 point clinical response” value [4] was 63%, the “100 point clinical response … LOCF” value [4] was 59% and the “Clinical Remission (CDAI < 150), LOCF” value [4] was 38%. The “70 point clinical response” value [5] was 73%, the “100 point clinical response (CDAI improvement ≥ 100 points)” value [5] was 66% and the “Clinical Remission (CDAI < 150)” value [5] was 46%. For the same compound, the “70 point clinical response” value [6] was 69%, the “100 point clinical response (CDAI improvement ≥ 100 points)” value [6] was 65% and the “Clinical Remission (CDAI < 150)” value [6] was 56%. For the same compound, the “100 point clinical response … LOCF” value (200 mg, week 10, overall) was 66%, the “100 point clinical response (CDAI improvement ≥ 100 points), NRI” value (200 mg, week 10, overall) was 60% and the “Clinical Remission (CDAI < 150), LOCF” value (200 mg, week 10, overall) was 50%. For the same compound, the “Clinical Remission (CDAI <150), NRI” value (200 mg, week 10, overall) was 48%, the “Clinical Remission (CDAI < 150), LOCF” value [7] was 16% and the “Clinical Remission (CDAI <150), NRI” value [7] was 16%. The “Clinical Remission (CDAI <150), OC” value [7] was 16%, the “Clinical Response (CDAI ≥70), LOCF” value [7] was 44% and the “Clinical Response (CDAI ≥70), NRI” value [7] was 44%. The “Clinical Response (CDAI ≥70), OC” value [7] was 44%, the “Clinical Response (CDAI ≥100), LOCF” value [7] was 32% and the “Clinical Response (CDAI ≥100), NRI” value [7] was 32%. The “Clinical Response (CDAI ≥ 100), OC” value [7] was 32%, the “Clinical Remission (CDAI < 150), LOCF” value [8] was 28% and the “Clinical Remission (CDAI <150), NRI” value [8] was 24%. For the same compound, the “Clinical Remission (CDAI <150), OC” value [8] was 30%, the “Clinical Response (CDAI ≥70), LOCF” value [8] was 44% and the “Clinical Response (CDAI ≥70), NRI” value [8] was 40%. For the same compound, the “Clinical Response (CDAI ≥70), OC” value [8] was 50%, the “Clinical Response (CDAI ≥100), LOCF” value [8] was 36% and the “Clinical Response (CDAI ≥100), NRI” value [8] was 32%. For the same compound, the “Clinical Response (CDAI ≥ 100), OC” value [8] was 40%, the “Clinical Remission (CDAI < 150), LOCF” value [9] was 0% and the “Clinical Remission (CDAI <150), NRI” value [9] was 0%. The “Clinical Remission (CDAI <150), OC” value [9] was 0%, the “Clinical Response (CDAI ≥70), LOCF” value [9] was 22% and the “Clinical Response (CDAI ≥70), NRI” value [9] was 11%. The “Clinical Response (CDAI ≥70), OC” value [9] was 13%, the “Clinical Response (CDAI ≥100), LOCF” value [9] was 22% and the “Clinical Response (CDAI ≥100), NRI” value [9] was 11%. The “Clinical Response (CDAI ≥ 100), OC” value [9] was 13%, the “Clinical Remission (CDAI < 150), LOCF” value [10] was 33% and the “Clinical Remission (CDAI <150), NRI” value [10] was 33%. For the same compound, the “Clinical Remission (CDAI <150), OC” value [10] was 38%, the “Clinical Response (CDAI ≥70), LOCF” value [10] was 44% and the “Clinical Response (CDAI ≥70), NRI” value [10] was 44%. For the same compound, the “Clinical Response (CDAI ≥70), OC” value [10] was 50%, the “Clinical Response (CDAI ≥100), LOCF” value [10] was 33% and the “Clinical Response (CDAI ≥100), NRI” value [10] was 33%. The “Clinical Response (CDAI ≥ 100), OC” value [10] was 38%, the “Clinical Remission (CDAI < 150), LOCF” value [11] was 67% and the “Clinical Remission (CDAI <150), NRI” value [11] was 63%. For the same compound, the “Clinical Remission (CDAI <150), OC” value [11] was 70%, the “Clinical Response (CDAI decrease ≥100 points), OC” value [11] was 93% and the “Clinical Response (CDAI ≥70), LOCF” value [11] was 100%. For the same compound, the “Clinical Response (CDAI ≥70), NRI” value [11] was 90%, the “Clinical Response (CDAI ≥70), OC” value [11] was 100% and the “Clinical Response (CDAI ≥100), LOCF” value [11] was 93%. For the same compound, the “Clinical Response (CDAI ≥100), NRI” value [11] was 83%, the “Clinical Remission (CDAI < 150), LOCF” value [12] was 57% and the “Clinical Remission (CDAI <150), NRI” value [12] was 50%. For the same compound, the “Clinical Remission (CDAI <150), OC” value [12] was 58%, the “Clinical Response (CDAI decrease ≥100 points), OC” value [12] was 77% and the “Clinical Response (CDAI ≥70), LOCF” value [12] was 80%. For the same compound, the “Clinical Response (CDAI ≥70), NRI” value [12] was 70%, the “Clinical Response (CDAI ≥70), OC” value [12] was 81% and the “Clinical Response (CDAI ≥100), LOCF” value [12] was 77%. For the same compound, the “Clinical Response (CDAI ≥100), NRI” value [12] was 67%, the “Clinical Remission (CDAI < 150), LOCF” value [13] was 87% and the “Clinical Remission (CDAI <150), NRI” value [13] was 87%. The “Clinical Remission (CDAI <150), OC” value [13] was 87%, the “Clinical Response (CDAI decrease ≥100 points), OC” value [13] was 97% and the “Clinical Response (CDAI ≥70), LOCF” value [13] was 100%. The “Clinical Response (CDAI ≥70), NRI” value [13] was 100%, the “Clinical Response (CDAI ≥70), OC” value [13] was 100% and the “Clinical Response (CDAI ≥100), LOCF” value [13] was 97%. The “Clinical Response (CDAI ≥100), NRI” value [13] was 97%, the “Clinical Remission (CDAI < 150), LOCF” value [14] was 63% and the “Clinical Remission (CDAI <150), NRI” value [14] was 60%. For the same compound, the “Clinical Remission (CDAI <150), OC” value [14] was 75%, the “Clinical Response (CDAI decrease ≥100 points), OC” value [14] was 92% and the “Clinical Response (CDAI ≥70), LOCF” value [14] was 83%. For the same compound, the “Clinical Response (CDAI ≥70), NRI” value [14] was 77%, the “Clinical Response (CDAI ≥70), OC” value [14] was 96% and the “Clinical Response (CDAI ≥100), LOCF” value [14] was 80%. The “Clinical Response (CDAI ≥100), NRI” value [14] was 73%, the “Clinical Remission (CDAI < 150), LOCF” value [15] was 79% and the “Clinical Remission (CDAI <150), NRI” value [15] was 71%. The “Clinical Remission (CDAI <150), OC” value [15] was 77%, the “Clinical Response (CDAI decrease ≥100 points), OC” value [15] was 92% and the “Clinical Response (CDAI ≥70), LOCF” value [15] was 100%. For the same compound, the “Clinical Response (CDAI ≥70), NRI” value [15] was 93%, the “Clinical Response (CDAI ≥70), OC” value [15] was 100% and the “Clinical Response (CDAI ≥100), LOCF” value [15] was 93%. The “Clinical Response (CDAI ≥100), NRI” value [15] was 86%, the “Clinical Remission (CDAI < 150), LOCF” value [16] was 79% and the “Clinical Remission (CDAI <150), NRI” value [16] was 71%. The “Clinical Remission (CDAI <150), OC” value [16] was 77%, the “Clinical Response (CDAI decrease ≥100 points), OC” value [16] was 85% and the “Clinical Response (CDAI ≥70), LOCF” value [16] was 93%. For the same compound, the “Clinical Response (CDAI ≥70), NRI” value [16] was 86%, the “Clinical Response (CDAI ≥70), OC” value [16] was 92% and the “Clinical Response (CDAI ≥100), LOCF” value [16] was 86%. For the same compound, the “Clinical Response (CDAI ≥100), NRI” value [16] was 79%, the “Clinical Remission (CDAI < 150), LOCF” value [17] was 32% and the “Clinical Remission (CDAI <150), NRI” value [17] was 32%. The “Clinical Remission (CDAI <150), OC” value [17] was 33%, the “Clinical Response (CDAI ≥70), LOCF” value [17] was 68% and the “Clinical Response (CDAI ≥70), NRI” value [17] was 68%. The “Clinical Response (CDAI ≥70), OC” value [17] was 71%, the “Clinical Response (CDAI ≥100), LOCF” value [17] was 59% and the “Clinical Response (CDAI ≥100), NRI” value [17] was 59%. The “Clinical Response (CDAI ≥ 100), OC” value [17] was 62%.
